Values of other authors in EP0333071A2, “Polypeptides, methods for their preparation, pharmaceutical compositions comprising them and use” (Eisai Co., Ltd., priority 1988, dated 1989).

Test system: enhancement in the quantity of spontaneous motion induced by methamphethamine
Details: general administration; comparison statement for neurotensin or derivatives thereof

For neurotensin, the methamphethamine antagonism is listed as “hardly exhibit methamphethamine antagonism”.
